In general, IC50 refers to the concentration that gives 50% inhibition. As usually defined, the CC50 is the concentration at which the toxic effect on the cells reaches its halfway point.

In one series the test system is Human alphaherpesvirus 1. In words: Antiviral activity against HSV1 SC16 in african green monkey Vero cells. It counts as functional, organism-based. The note with it: Human alphaherpesvirus 1, SC16, Vero.
Series [1] in a line: Cytotoxicity against african green monkey Vero cells. Type of series: cell-based. The note with it: chlorocebus sabaeus.

The structures appear in SMILES notation.

Turning to `Fc1ccc(-c2nn3c(NC4CCCC4)cccc3c2-c2ccnc(NC3CCCC3)n2)cc1`, the IC50 in the series with Human alphaherpesvirus 1 came to 260 nM. This compound also displayed a CC50 in series [1] of over 160000 nM.
In the same order, the values of `CC(C)Sc1cc(NC2CCCC2)cc2c(-c3ccnc(NC4CCCC4)n3)c(-c3ccc(F)cc3)nn12` are 370 nM and over 40000 nM.
In the same order, the values of `Fc1ccc(-c2nn3c(Cl)cc(Cl)cc3c2-c2ccnc(NC3CCCC3)n2)cc1` are 7000 nM and over 40000 nM.
In the same order, the values of `Fc1ccc(-c2nn3c(NC4CCCC4)cc(NC4CCCC4)cc3c2-c2ccnc(NC3CCCC3)n2)cc1` are 240 nM and over 40000 nM.
Compound `COc1ccc(-c2nn3c(SC)cc(NC4CCCC4)cc3c2-c2ccnc(NC3CCCC3)n2)cc1` registered an IC50 in the series with Human alphaherpesvirus 1 of 220 nM. Moreover, in series [1], the CC50 was over 40000 nM.
For the compound `Fc1ccc(-c2nn3c(Cl)cc(NC4CCCC4)cc3c2-c2ccnc(NC3CCCC3)n2)cc1`, the IC50 with Human alphaherpesvirus 1 is 1360 nM. In series [1], this compound displayed a CC50 of over 40000 nM.
In the series on Human alphaherpesvirus 1, `Fc1ccc(-c2nn3ccc(NC4CCCC4)cc3c2-c2ccnc(NC3CCCC3)n2)cc1` had an IC50 of 530 nM. In addition, in series [1], half-maximal cytotoxicity (CC50) was put at 18000 nM.
Consider `Fc1ccc(-c2nn3ccc(N4CCCC4)cc3c2-c2ccnc(NC3CCCC3)n2)cc1`, for which inhibition with Human alphaherpesvirus 1 was half-maximal at 1350 nM (IC50). In addition, the CC50 in series [1] is over 40000 nM.
In the same order, the values of `COc1ccc(-c2nn3c(SC(C)C)cc(NC4CCCC4)cc3c2-c2ccnc(NC3CCCC3)n2)cc1` are 210 nM and over 40000 nM.
On the same counts, the results for `COc1ccn2nc(-c3ccc(F)cc3)c(-c3ccnc(NC4CCCC4)n3)c2c1` are over 36000 nM and over 36000 nM.
On the same counts, the results for `COCCOc1cc(NC2CCCC2)n2nc(-c3ccc(F)cc3)c(-c3ccnc(NC4CCCC4)n3)c2c1` are 320 nM and over 40000 nM.
`COCCNc1ccn2nc(-c3ccc(F)cc3)c(-c3ccnc(NC4CCCC4)n3)c2c1`: 830 nM corresponded to half-maximal inhibition in the series with Human alphaherpesvirus 1 (IC50). The CC50 in series [1] is over 40000 nM.
On the same counts, the results for `COc1ccc(-c2nn3c(Sc4ccccc4)cc(NC4CCCC4)cc3c2-c2ccnc(NC3CCCC3)n2)cc1` are 1800 nM and over 40000 nM.
In the same order, the values of `Fc1ccc(-c2nn3c(NC4CC4)cc(Cl)cc3c2-c2ccnc(NC3CCCC3)n2)cc1` are 330 nM and over 40000 nM.
On the same counts, the results for `Fc1ccc(-c2nn3ccc(N4CCOCC4)cc3c2-c2ccnc(NC3CCCC3)n2)cc1` are 3630 nM and 34000 nM.
On to `COc1ccc(-c2nn3ccc(Cl)cc3c2-c2ccnc(NC3CCCC3)n2)cc1`, for which the midpoint of inhibition in the series with Human alphaherpesvirus 1, the IC50, lay at 4270 nM. The same compound gave a CC50 in series [1] of over 40000 nM.
In the same order, the values of `CC(C)Nc1cc(NC(C)C)n2nc(-c3ccc(F)cc3)c(-c3ccnc(NC4CCCC4)n3)c2c1` are 550 nM and over 40000 nM.
In the same order, the values of `Fc1ccc(-c2nn3c(N4CCOCC4)cc(Cl)cc3c2-c2ccnc(NC3CCCC3)n2)cc1` are 180 nM and over 40000 nM.
In the series on Human alphaherpesvirus 1, `Fc1ccc(-c2nn3c(N4CCCCC4)cc(Cl)cc3c2-c2ccnc(NC3CCCC3)n2)cc1` came in with an IC50 of 150 nM. Moreover, the CC50 in series [1] was over 40000 nM.
On the same counts, the results for `c1cc(-c2c(-c3ccc(OCC4CC4)cc3)nn3ccc(NC4CCCC4)cc23)nc(NC2CCCC2)n1` are 330 nM and over 40000 nM.
On the same counts, the results for `COc1ccc(-c2nn3c(Cl)cc(Cl)cc3c2-c2ccnc(NC3CCCC3)n2)cc1` are 5300 nM and over 40000 nM.
In the same order, the values of `COc1ccc(-c2nn3c(NC4CCCC4)cc(Cl)cc3c2-c2ccnc(NC3CCCC3)n2)cc1` are 220 nM and over 40000 nM.
With `CC(C)COc1ccc(-c2nn3ccc(NC4CCCC4)cc3c2-c2ccnc(NC3CCCC3)n2)cc1`, in the series on Human alphaherpesvirus 1, the IC50 turned out to be 560 nM. Besides, the CC50 in series [1] amounted to 27000 nM.
For the compound `COc1ccc(-c2nn3c(NC4CC4)cc(Cl)cc3c2-c2ccnc(NC3CCCC3)n2)cc1`, half-maximal inhibition in the series on Human alphaherpesvirus 1 (IC50) required 340 nM. The same compound displayed a CC50 in series [1] of over 40000 nM.
In the same order, the values of `CCSc1cc(NC2CCCC2)cc2c(-c3ccnc(NC4CCCC4)n3)c(-c3ccc(F)cc3)nn12` are 70 nM and over 40000 nM.
For the compound `COc1ccc(-c2nn3ccc(NC(C)C)cc3c2-c2ccnc(NC3CCCC3)n2)cc1`, in the series on Human alphaherpesvirus 1, the IC50 amounted to 920 nM. Moreover, in series [1], the CC50 was over 40000 nM.
On the same counts, the results for `CC(C)Nc1ccn2nc(-c3ccc(F)cc3)c(-c3ccnc(NC4CCCC4)n3)c2c1` are 2730 nM and over 40000 nM.
In the same order, the values of `CN(C)c1cc(Cl)cc2c(-c3ccnc(NC4CCCC4)n3)c(-c3ccc(F)cc3)nn12` are 380 nM and over 40000 nM.
On the same counts, the results for `Fc1ccc(-c2nn3c(NC4CCCC4)cc(Cl)cc3c2-c2ccnc(NC3CCCC3)n2)cc1` are 330 nM and over 40000 nM.
Compound `CSc1cc(NC2CCCC2)cc2c(-c3ccnc(NC4CCCC4)n3)c(-c3ccc(F)cc3)nn12` returned an IC50 in the series with Human alphaherpesvirus 1 of 170 nM. Moreover, the CC50 in series [1] is over 40000 nM.
With `COc1cc(NC2CCCC2)n2nc(-c3ccc(F)cc3)c(-c3ccnc(NC4CCCC4)n3)c2c1`, the IC50 in the series on Human alphaherpesvirus 1 was 130 nM. This compound showed a CC50 in series [1] of over 40000 nM.
In the same order, the values of `CCSc1cc(NC2CCCC2)cc2c(-c3ccnc(NC4CCCC4)n3)c(-c3ccc(OC)cc3)nn12` are 40 nM and over 40000 nM.
With `COc1ccc(-c2nn3c(NC4CCCC4)cccc3c2-c2ccnc(NC3CCCC3)n2)cc1`, the IC50 in the series on Human alphaherpesvirus 1 came to 220 nM. This compound also came in with a CC50 in series [1] of over 100000 nM.
On the same counts, the results for `CCOc1cc(NC2CCCC2)cc2c(-c3ccnc(NC4CCCC4)n3)c(-c3ccc(F)cc3)nn12` are 160 nM and 20600 nM.
With `Fc1ccc(-c2nn3c(NC4CCCC4)cc(OCC4CC4)cc3c2-c2ccnc(NC3CCCC3)n2)cc1`, the IC50 in the series with Human alphaherpesvirus 1 was determined as 170 nM. The compound further returned a CC50 in series [1] of over 40000 nM.
On the same counts, the results for `Fc1ccc(-c2nn3ccc(Cl)cc3c2-c2ccnc(NC3CCCC3)n2)cc1` are over 5000 nM and over 40000 nM.
On the same counts, the results for `Nc1ccn2nc(-c3ccc(F)cc3)c(-c3ccnc(NC4CCCC4)n3)c2c1` are 5070 nM and 20000 nM.
With `COCCOc1cc(NC2CCCC2)cc2c(-c3ccnc(NC4CCCC4)n3)c(-c3ccc(F)cc3)nn12`, the IC50 in the series on Human alphaherpesvirus 1 came out at 80 nM. In addition, the midpoint of cytotoxicity in series [1], the CC50, lay at 32500 nM.
On the same counts, the results for `CC(C)Oc1cc(NC2CCCC2)n2nc(-c3ccc(F)cc3)c(-c3ccnc(NC4CCCC4)n3)c2c1` are 70 nM and over 40000 nM.
In the series on Human alphaherpesvirus 1, `CC(C)Nc1cc(Cl)cc2c(-c3ccnc(NC4CCCC4)n3)c(-c3ccc(F)cc3)nn12` gave an IC50 of 1500 nM. Also, in series [1], the CC50 was over 40000 nM.
Take `COc1ccc(-c2nn3ccc(NC4CCCC4)cc3c2-c2ccnc(NC3CCCC3)n2)cc1`: the midpoint of inhibition with Human alphaherpesvirus 1, the IC50, lay at 210 nM. In addition, the half-maximal cytotoxic concentration (CC50) in series [1] came to 12300 nM.
In the same order, the values of `c1cc(NC2CCCC2)n2nc(-c3ccc(OCC4CC4)cc3)c(-c3ccnc(NC4CCCC4)n3)c2c1` are 170 nM and over 40000 nM.
On the same counts, the results for `Nc1nc2c(ncn2COCCO)c(=O)[nH]1` [ACYCLOVIR] are 390 nM and over 200000 nM.

These data come from ChEMBL document CHEMBL1140823, “Pyrazolopyridines with potent activity against herpesviruses: effects of C5 substituents on antiviral activity” (Bioorg Med Chem Lett, 2008).
